Measured values from ChEMBL document CHEMBL1145176, “Somatostatin receptor 1 selective analogues: 2. N(alpha)-Methylated scan” (J Med Chem, 2005).
Positions of bridges follow the written chain, without caps; N, C: chain ends. Non-standard residues stand in square brackets, D forms with d. Residues, ends and D or L forms follow the SMILES beside them. NMePhe(4-CH2NHiPr) = CN[C@@H](Cc1ccc(CNC(C)C)cc1)C(=O)O; Phe(4-CH2NHiPr) = CC(C)NCc1ccc(C[C@H](N)C(=O)O)cc1; d2Nal = N[C@H](Cc1ccc2ccccc2c1)C(=O)O; NMeS = CN[C@@H](CO)C(=O)O

What was measured:
[1] = biological target: Somatostatin receptor type 5 (Homo sapiens, UniProt P35346); assay: Inhibition of [Leu8,D-Trp22,125I-Tyr25]SRIF-28 binding to human somatostatin receptor type 5
Sequence of Somatostatin receptor type 5 (P35346 whole entry): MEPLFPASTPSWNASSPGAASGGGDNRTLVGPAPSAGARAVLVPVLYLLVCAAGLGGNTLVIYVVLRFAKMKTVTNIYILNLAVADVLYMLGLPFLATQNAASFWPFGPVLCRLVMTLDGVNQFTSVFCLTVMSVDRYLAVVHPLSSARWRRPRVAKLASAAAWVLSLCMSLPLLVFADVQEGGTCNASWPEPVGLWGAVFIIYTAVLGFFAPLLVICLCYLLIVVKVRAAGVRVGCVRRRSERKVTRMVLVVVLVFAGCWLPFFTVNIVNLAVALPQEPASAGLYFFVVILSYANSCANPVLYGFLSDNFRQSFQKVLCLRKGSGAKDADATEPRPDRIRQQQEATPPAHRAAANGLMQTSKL

[2] = biological target: Somatostatin receptor type 2 (Homo sapiens, UniProt P30874); assay: Inhibition of [Leu8,D-Trp22,125I-Tyr25]SRIF-28 binding to human somatostatin receptor type 2
Sequence of Somatostatin receptor type 2 (P30874 whole entry): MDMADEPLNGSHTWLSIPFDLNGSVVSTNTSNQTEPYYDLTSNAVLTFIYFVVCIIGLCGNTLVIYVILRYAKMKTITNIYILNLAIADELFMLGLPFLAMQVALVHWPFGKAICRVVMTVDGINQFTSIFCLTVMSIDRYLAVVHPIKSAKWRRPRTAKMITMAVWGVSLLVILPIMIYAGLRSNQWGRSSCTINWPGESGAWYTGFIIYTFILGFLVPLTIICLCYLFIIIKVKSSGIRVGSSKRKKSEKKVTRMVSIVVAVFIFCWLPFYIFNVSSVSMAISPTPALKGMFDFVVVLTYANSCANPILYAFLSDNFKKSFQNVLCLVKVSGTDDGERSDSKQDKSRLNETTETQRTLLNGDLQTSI

[3] = biological target: Somatostatin receptor type 1 (Homo sapiens, UniProt P30872); assay: Inhibition of [Leu8,D-Trp22,125I-Tyr25]SRIF-28 binding to human somatostatin receptor type 1
Sequence of Somatostatin receptor type 1 (P30872 whole entry): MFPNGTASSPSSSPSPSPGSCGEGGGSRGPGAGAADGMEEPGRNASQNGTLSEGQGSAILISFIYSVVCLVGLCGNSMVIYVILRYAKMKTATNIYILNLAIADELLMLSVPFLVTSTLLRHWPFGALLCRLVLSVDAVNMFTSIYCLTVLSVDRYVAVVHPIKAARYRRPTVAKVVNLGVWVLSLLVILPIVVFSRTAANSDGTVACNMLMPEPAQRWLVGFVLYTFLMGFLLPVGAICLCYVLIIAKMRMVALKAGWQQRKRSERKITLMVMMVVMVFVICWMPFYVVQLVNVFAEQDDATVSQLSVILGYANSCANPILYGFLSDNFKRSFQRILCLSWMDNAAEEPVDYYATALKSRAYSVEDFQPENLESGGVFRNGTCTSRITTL

[4] = biological target: Somatostatin receptor type 3 (Homo sapiens, UniProt P32745); assay: Inhibition of [Leu8,D-Trp22,125I-Tyr25]SRIF-28 binding to human somatostatin receptor type 3
Sequence of Somatostatin receptor type 3 (P32745 whole entry): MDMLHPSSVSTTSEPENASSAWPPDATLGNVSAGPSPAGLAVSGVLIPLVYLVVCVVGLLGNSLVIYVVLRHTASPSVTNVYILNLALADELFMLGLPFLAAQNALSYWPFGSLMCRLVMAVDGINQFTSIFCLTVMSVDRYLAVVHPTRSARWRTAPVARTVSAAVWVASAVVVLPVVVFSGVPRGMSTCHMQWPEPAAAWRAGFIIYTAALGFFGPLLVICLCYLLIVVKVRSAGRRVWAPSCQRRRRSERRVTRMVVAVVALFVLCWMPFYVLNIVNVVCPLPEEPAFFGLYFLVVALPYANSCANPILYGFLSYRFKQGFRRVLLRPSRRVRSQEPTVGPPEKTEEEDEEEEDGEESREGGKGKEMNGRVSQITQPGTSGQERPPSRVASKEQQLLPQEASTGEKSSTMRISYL

SMILES	IC50 [1] [nM]	IC50 [2] [nM]	IC50 [3] [nM]	IC50 [4] [nM]
C[C@H](N)C(=O)NCC(=O)N[C@H]1CSSC[C@@H](C(=O)O)NC(=O)[C@H](CO)NC(=O)[C@H]([C@@H](C)O)NC(=O)[C@H](Cc2ccccc2)NC(=O)[C@H]([C@@H](C)O)NC(=O)[C@H](CCCCN)NC(=O)[C@@H](Cc2c[nH]c3ccccc23)NC(=O)[C@H](Cc2ccccc2)NC(=O)[C@H](Cc2ccccc2)NC(=O)[C@H](CCCCN)NC1=O (H-AGCKFF[dW]KTFTSC-OH; disulfide 3-13)	–	–	0.98	–
CC(C)NCc1ccc(C[C@@H]2NC(=O)[C@@H](Cc3c[nH]c4ccccc34)NC(=O)[C@H](Cc3ccccc3)NC(=O)[C@H](Cc3ccccc3)NC(=O)[C@H](CCCCN)NC(=O)[C@@H](N)CSSC[C@@H](C(=O)O)NC(=O)[C@H](CO)NC(=O)[C@H]([C@@H](C)O)NC(=O)[C@H](Cc3ccccc3)NC(=O)[C@H]([C@@H](C)O)NC2=O)cc1 (H-CKFF[dW][Phe(4-CH2NHiPr)]TFTSC-OH; disulfide 1-11)	–	–	33	–
CC(C)NCc1ccc(C[C@@H]2NC(=O)[C@@H](Cc3ccc4ccccc4c3)NC(=O)[C@H](Cc3ccccc3)NC(=O)[C@H](Cc3ccccc3)NC(=O)[C@H](CCCCN)NC(=O)[C@@H](N)CSSC[C@@H](C(=O)O)NC(=O)[C@H](CO)NC(=O)[C@H]([C@@H](C)O)NC(=O)[C@H](Cc3ccccc3)NC(=O)[C@H]([C@@H](C)O)NC2=O)cc1 (H-CKFF[d2Nal][Phe(4-CH2NHiPr)]TFTSC-OH; disulfide 1-11)	> 1000	–	248	–
CC(C)NCc1ccc(C[C@@H]2NC(=O)[C@@H](Cc3c[nH]c4ccccc34)NC(=O)[C@H](Cc3ccccc3)NC(=O)[C@H](Cc3ccccc3)NC(=O)[C@H](CCCCN)NC(=O)[C@@H](N)CSSC[C@@H](C(=O)O)NC(=O)[C@H](CO)N(C)C(=O)[C@H]([C@@H](C)O)NC(=O)[C@H](Cc3ccccc3)NC(=O)[C@H]([C@@H](C)O)NC2=O)cc1 (H-CKFF[dW][Phe(4-CH2NHiPr)]TFT[NMeS]C-OH; disulfide 1-11)	–	> 1000	23	> 1000

Results, then the compound that gave them:

IC50 [1] [nM]	IC50 [2] [nM]	IC50 [3] [nM]	IC50 [4] [nM]	SMILES
> 1000	> 1000	–	–	CC(C)NCc1ccc(C[C@H]2C(=O)N[C@@H]([C@@H](C)O)C(=O)N[C@@H](Cc3ccc(O)cc3)C(=O)N[C@@H]([C@@H](C)O)C(=O)N[C@@H](CO)C(=O)N[C@H](C(=O)O)CSSC[C@H](N)C(=O)N[C@@H](CCCCN)C(=O)N[C@@H](Cc3ccccc3)C(=O)N[C@@H](Cc3ccccc3)C(=O)N[C@H](Cc3c[nH]c4ccccc34)C(=O)N2C)cc1 (H-CKFF[dW][NMePhe(4-CH2NHiPr)]TYTSC-OH; disulfide 1-11)
> 1000	–	69	–	CC(C)NCc1ccc(C[C@H]2C(=O)N[C@@H]([C@@H](C)O)C(=O)N[C@@H](Cc3ccccc3)C(=O)N[C@@H]([C@@H](C)O)C(=O)N[C@@H](CO)C(=O)N[C@H](C(=O)O)CSSC[C@H](N)C(=O)N[C@@H](CCCCN)C(=O)N[C@@H](Cc3ccccc3)C(=O)N[C@@H](Cc3ccccc3)C(=O)N[C@H](Cc3ccc4ccccc4c3)C(=O)N2C)cc1 (H-CKFF[d2Nal][NMePhe(4-CH2NHiPr)]TFTSC-OH; disulfide 1-11)
> 1000	> 1000	25	–	CC(C)NCc1ccc(C[C@H]2C(=O)N[C@@H]([C@@H](C)O)C(=O)N[C@@H](Cc3ccc(O)cc3)C(=O)N[C@@H]([C@@H](C)O)C(=O)N[C@@H](CO)C(=O)N[C@H](C(=O)O)CSSC[C@H](N)C(=O)N[C@@H](CCCCN)C(=O)N[C@@H](Cc3ccccc3)C(=O)N[C@@H](Cc3ccccc3)C(=O)N[C@H](Cc3ccc4ccccc4c3)C(=O)N2C)cc1 (H-CKFF[d2Nal][NMePhe(4-CH2NHiPr)]TYTSC-OH; disulfide 1-11)
